US11566007B2, “Ras inhibitors” (Revolution Medicines, Inc., priority 2019, dated 2023)
Values joined by “and” are separate entries in the source; they are usually repeats but may differ in a detail not shown here. Equal values may be shown once. Read-outs that look alike come from different tables or passages of the source.

Tests used:
KRAS G12D = KRAS G12D (Homo sapiens (Human), UniProt P01116+P62937, G12D); assay: Ras-Raf (BRAF RBD) disruption / FRET / MOA assay, KRAS G12D; type: biochemical; settings: Ras-Raf disruption/FRET/MOA assay; class symbols; read-out: KRAS G12D FRET data IC50
Sequence of KRAS G12D (P01116-2 other isoform, or with tags, fused parts or gaps G12D): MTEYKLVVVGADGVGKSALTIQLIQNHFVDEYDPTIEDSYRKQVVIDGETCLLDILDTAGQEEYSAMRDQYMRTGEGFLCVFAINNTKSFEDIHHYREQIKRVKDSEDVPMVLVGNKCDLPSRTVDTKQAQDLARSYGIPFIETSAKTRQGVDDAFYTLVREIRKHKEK
Sequence of KRAS G12D (P62937 whole entry): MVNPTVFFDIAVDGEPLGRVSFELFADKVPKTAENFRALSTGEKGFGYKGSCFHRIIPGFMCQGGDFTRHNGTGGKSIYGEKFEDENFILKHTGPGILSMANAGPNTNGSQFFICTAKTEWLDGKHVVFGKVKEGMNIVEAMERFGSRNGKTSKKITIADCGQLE
Method in brief: (§1)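 TR-FRET read-out: a drop in ratio relative to DMSO wells marks disruption of the Ras:RAF complex, reported as IC50. Compounds (3-fold series, 10 points, top 30 μM final) incubated 3 h at 25° C before Eu-anti-His 10 nM and APC-anti-GST 50 nM, 1.5 h more.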

K-Ras G12C = K-Ras G12C (Homo sapiens (Human), UniProt P01116+P62937, G12C); assay: Ras-Raf (BRAF RBD) disruption / FRET / MOA assay, KRAS G12C; type: biochemical; settings: KRAS G12C; Ras-Raf disruption/FRET/MOA assay; read-out: IC50* KRAS G12C FRET data
Sequence of K-Ras G12C (P01116-2 other isoform, or with tags, fused parts or gaps G12C): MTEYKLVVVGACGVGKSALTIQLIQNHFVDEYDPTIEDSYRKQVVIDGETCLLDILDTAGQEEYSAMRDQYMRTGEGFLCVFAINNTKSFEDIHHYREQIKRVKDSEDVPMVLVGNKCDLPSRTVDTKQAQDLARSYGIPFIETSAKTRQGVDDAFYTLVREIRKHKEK
Sequence of K-Ras G12C (P62937 whole entry): as the sequence (P62937 whole entry) above
Method in brief: as §1

NCI-H358 (K-Ras G12C) = assay: CellTiter-Glo cell viability assay, NCI-H358; type: cell-based, human; settings: NCI-H358, 5-day treatment, class symbols, read-out: Additional H358 Cell Viability assay data (K-Ras G12C, IC50)
Method in brief: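 Compounds were dispensed directly onto K-Ras mutant cells and incubated until day 5, then plates were equilibrated to room temperature for about 30 minutes before CellTiter-Glo luminescence. Signals were normalized as (sample/average DMSO)*100 and fitted by four-parameter logistic fit.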

KRAS G12S = KRAS G12S (Homo sapiens (Human), UniProt P01116+P62937, G12S); assay: Ras-Raf (BRAF RBD) disruption / FRET / MOA assay, KRAS G12S; type: biochemical; settings: Ras-Raf disruption/FRET/MOA assay; class symbols; read-out: KRAS G12S FRET data IC50
Sequence of KRAS G12S (P01116-2 other isoform, or with tags, fused parts or gaps G12S): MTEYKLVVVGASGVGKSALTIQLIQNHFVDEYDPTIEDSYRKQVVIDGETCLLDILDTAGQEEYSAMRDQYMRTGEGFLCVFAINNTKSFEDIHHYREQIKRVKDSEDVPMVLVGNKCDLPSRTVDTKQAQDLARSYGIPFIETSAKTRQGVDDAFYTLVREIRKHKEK
Sequence of KRAS G12S (P62937 whole entry): as the sequence (P62937 whole entry) above
Method in brief: as §1

KRAS G13D = KRAS G13D (Homo sapiens (Human), UniProt P01116+P62937, G13D); assay: Ras-Raf (BRAF RBD) disruption / FRET / MOA assay, KRAS G13D; type: biochemical; settings: read-out: IC50* KRAS G13D FRET data
Sequence of KRAS G13D (P01116-2 other isoform, or with tags, fused parts or gaps G13D): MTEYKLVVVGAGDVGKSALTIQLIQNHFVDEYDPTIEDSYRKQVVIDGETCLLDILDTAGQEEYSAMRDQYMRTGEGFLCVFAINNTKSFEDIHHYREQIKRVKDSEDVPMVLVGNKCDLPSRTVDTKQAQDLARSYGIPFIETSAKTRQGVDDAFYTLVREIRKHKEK
Sequence of KRAS G13D (P62937 whole entry): as the sequence (P62937 whole entry) above
Method in brief: as §1

[1] = tested on: NCI-H358 cells (K-Ras G12C); assay: Potency assay: pERK in NCI-H358 cells; type: cell-based, human; settings: H358 KRAS G12C, read-out: pERK EC50
Method in brief: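 Inhibition of cellular pERK after a 4 h treatment, detected by AlphaLISA or In-Cell Western. IC50 from a four-parameter concentration-response fit.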

KRAS G12V = KRAS G12V (Homo sapiens (Human), UniProt P01116+P62937, G12V); assay: Ras-Raf (BRAF RBD) disruption / FRET / MOA assay, KRAS G12V; type: biochemical; settings: read-out: IC50* KRAS G12V FRET data
Sequence of KRAS G12V (P01116-2 other isoform, or with tags, fused parts or gaps G12V): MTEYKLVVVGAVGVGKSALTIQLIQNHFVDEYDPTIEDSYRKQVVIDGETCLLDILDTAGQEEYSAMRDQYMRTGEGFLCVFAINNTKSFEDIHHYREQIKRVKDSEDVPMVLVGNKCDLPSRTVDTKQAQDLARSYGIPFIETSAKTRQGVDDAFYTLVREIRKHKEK
Sequence of KRAS G12V (P62937 whole entry): as the sequence (P62937 whole entry) above
Method in brief: as §1

KRAS WT = KRAS WT (Homo sapiens (Human), UniProt P01116+P62937); assay: Ras-Raf (BRAF RBD) disruption / FRET / MOA assay, KRAS WT; type: biochemical; settings: read-out: IC50* KRAS WT FRET data
Sequence of KRAS WT (P01116-2 other isoform, or with tags, fused parts or gaps): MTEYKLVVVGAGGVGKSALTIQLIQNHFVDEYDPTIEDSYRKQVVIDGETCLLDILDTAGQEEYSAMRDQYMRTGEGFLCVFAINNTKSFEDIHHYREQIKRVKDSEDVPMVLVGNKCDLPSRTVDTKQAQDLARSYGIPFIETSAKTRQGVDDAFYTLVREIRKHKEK
Sequence of KRAS WT (P62937 whole entry): as the sequence (P62937 whole entry) above
Method in brief: as §1

NRAS G12C = NRAS G12C (Homo sapiens (Human), UniProt P01111+P62937, G12C); assay: Ras-Raf (BRAF RBD) disruption / FRET / MOA assay, NRAS G12C; type: biochemical; settings: read-out: IC50* NRAS G12C FRET data
Sequence of NRAS G12C (P01111 whole entry G12C): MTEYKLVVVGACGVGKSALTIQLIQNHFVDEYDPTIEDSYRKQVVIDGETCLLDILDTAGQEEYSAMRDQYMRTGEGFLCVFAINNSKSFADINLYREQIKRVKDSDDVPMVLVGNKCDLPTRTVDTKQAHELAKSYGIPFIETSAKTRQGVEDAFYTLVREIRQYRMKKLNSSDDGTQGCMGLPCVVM
Sequence of NRAS G12C (P62937 whole entry): as the sequence (P62937 whole entry) above
Method in brief: as §1

K-Ras G13C = K-Ras G13C (Homo sapiens (Human), UniProt P01116+P62937, G13C); assay: Ras-Raf (BRAF RBD) disruption / FRET / MOA assay, KRAS G13C; type: biochemical; settings: KRAS G13C; Ras-Raf disruption/FRET/MOA assay; read-out: IC50* KRAS G13C FRET data
Sequence of K-Ras G13C (P01116-2 other isoform, or with tags, fused parts or gaps G13C): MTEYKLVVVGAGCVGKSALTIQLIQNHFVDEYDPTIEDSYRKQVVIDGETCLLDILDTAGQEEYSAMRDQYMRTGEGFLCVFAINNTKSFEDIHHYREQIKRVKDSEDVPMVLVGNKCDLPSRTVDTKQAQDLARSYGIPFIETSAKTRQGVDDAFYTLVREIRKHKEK
Sequence of K-Ras G13C (P62937 whole entry): as the sequence (P62937 whole entry) above
Method in brief: as §1

Row | Compound | IC50 (KRAS G12D) | IC50 (K-Ras G12C) | IC50 (NCI-H358 (K-Ras G12C); Homo sapiens, NCI-H358, 120 h) | IC50 (NCI-H358 (K-Ras G12C)) | IC50 (KRAS G12S) | IC50 (KRAS G13D) | EC50 ([1]; Homo sapiens, NCI-H358) | IC50 (KRAS G12V) | IC50 (KRAS WT) | IC50 (NRAS G12C) | IC50 (K-Ras G13C) | EC50 [1]
1 | C=CC(=O)N1CC[C@H](C(=O)N(C)[C@H](C(=O)N[C@H]2Cc3cc(O)cc(c3)-c3ccc4c(c3)c(c(-c3cnccc3[C@H](CC)OC)n4CC)CC(C)(C)COC(=O)[C@@H]3CCCN(N3)C2=O)C(C)C)C1 (atropisomer, axis not shown) [Example A194] | 1000 to 10000 nM and 100 to 1000 nM | 100 to 1000 nM and < 10 nM | 10 to 100 nM | < 10 nM | 100 to 1000 nM and 10 to 100 nM | 100 to 1000 nM and 1000 to 10000 nM | < 5000 nM | 100 to 1000 nM and 10 to 100 nM | 1000 to 10000 nM and 10 to 100 nM | 100 to 1000 nM and < 10 nM | 10 to 100 nM and 1000 to 10000 nM | 
2 | CCn1c(-c2cccnc2[C@H](C)OC)c2c3cc(ccc31)-c1nsc(n1)C[C@H](NC(=O)[C@H](C(C)C)N(C)C(=O)[C@H]1CCN(C(=O)C#CCN3CCOCC3)C1)C(=O)N1CCC[C@H](N1)C(=O)OCC(C)(C)C2 (atropisomer, axis not shown) [Example A201] | > 10000 nM | 10 to 100 nM | 10 to 100 nM |  | > 10000 nM | > 10000 nM | < 5000 nM | > 10000 nM | > 10000 nM | 100 to 1000 nM | 1000 to 10000 nM | 
3 | C=CC(=O)N1CC[C@H](C(=O)N(C)[C@H](C(=O)NN2Cc3cc(O)cc(c3)-c3ccc4c(c3)c(c(-c3cccnc3[C@H](C)OC)n4CC)CC(C)(C)COC(=O)[C@@H]3CCCN(N3)C2=O)C(C)C)C1 (atropisomer, axis not shown) [Example A233] | 100 to 1000 nM | 10 to 100 nM | 10 to 100 nM |  | 10 to 100 nM | 100 to 1000 nM | < 5000 nM | 10 to 100 nM | 10 to 100 nM | 10 to 100 nM | 10 to 100 nM | 
4 | CCn1c(-c2cccnc2[C@H](C)OC)c2c3cc(ccc31)-c1cc(O)cc(c1)C[C@H](NC(=O)[C@H](C(C)C)N(C)C(=O)[C@H]1CCN(C(=O)C#CCN3[C@@H](C)COC[C@@H]3C)C1)C(=O)N1CCC[C@H](N1)C(=O)OCC(C)(C)C2 (atropisomer, axis not shown) [Example A244] | 1000 to 10000 nM | < 10 nM | < 10 nM |  | 100 to 1000 nM | 100 to 1000 nM | < 5000 nM | 100 to 1000 nM | 100 to 1000 nM | < 10 nM | 10 to 100 nM | 
5 | CCn1c(-c2cccnc2[C@H](C)OC)c2c3cc(ccc31)-c1cc(O)cc(c1)C[C@H](NC(=O)[C@H](C(C)C)N(C)C(=O)[C@H]1CCN(C(=O)C#CCN3[C@H](C)COC[C@@H]3C)C1)C(=O)N1CCC[C@H](N1)C(=O)OCC(C)(C)C2 (atropisomer, axis not shown) [Example A245] | 1000 to 10000 nM | < 10 nM | < 10 nM |  | 100 to 1000 nM | 100 to 1000 nM | < 5000 nM | 10 to 100 nM | 100 to 1000 nM | < 10 nM | 10 to 100 nM | 
6 | CCn1c(-c2cccnc2[C@H](C)OC)c2c3cc(ccc31)-c1cc(O)cc(c1)C[C@H](NC(=O)[C@H](C(C)C)N(C)C(=O)[C@H]1CCN(C(=O)C#C[C@@H]3CCCN3C)C1)C(=O)N1CCC[C@H](N1)C(=O)OCC(C)(C)C2 (atropisomer, axis not shown) [Example A247] | 1000 to 10000 nM and 100 to 1000 nM | < 10 nM | 10 to 100 nM |  | 100 to 1000 nM and 1000 to 10000 nM | 100 to 1000 nM and 1000 to 10000 nM | < 5000 nM | 100 to 1000 nM and 1000 to 10000 nM | 100 to 1000 nM and 1000 to 10000 nM | < 10 nM | 10 to 100 nM and < 10 nM | 
7 | CCn1c(-c2cccnc2[C@H](C)OC)c2c3cc(ccc31)-c1cc(O)cc(c1)C[C@H](NC(=O)[C@H](C(C)C)N(C)C(=O)c1ccc(NC(=O)/C=C/CN(C)C)nc1)C(=O)N1CCC[C@H](N1)C(=O)OCC(C)(C)C2 (atropisomer, axis not shown) [Example A249] | > 10000 nM | 100 to 1000 nM | 100 to 1000 nM |  | 1000 to 10000 nM | 1000 to 10000 nM | < 5000 nM | 1000 to 10000 nM | 1000 to 10000 nM | 100 to 1000 nM | 10 to 100 nM | 
8 | C=CC(=O)Nc1ccc(C(=O)N(C)[C@H](C(=O)N[C@H]2Cc3cc(O)cc(c3)-c3ccc4c(c3)c(c(-c3cccnc3[C@H](C)OC)n4CC)CC(C)(C)COC(=O)[C@@H]3CCCN(N3)C2=O)C(C)C)cn1 (atropisomer, axis not shown) [Example A250] | 1000 to 10000 nM and > 10000 nM | 10 to 100 nM | 10 to 100 nM |  | 100 to 1000 nM and 1000 to 10000 nM | 100 to 1000 nM and > 10000 nM | < 5000 nM | 100 to 1000 nM and > 10000 nM | 100 to 1000 nM and 1000 to 10000 nM | 10 to 100 nM and < 10 nM | 10 to 100 nM and < 10 nM | 
9 | CCn1c(-c2cccnc2[C@H](C)OC)c2c3cc(ccc31)-c1cc(O)cc(c1)C[C@H](NC(=O)[C@H](C(C)C)N(C)C(=O)c1ncc(NC(=O)/C=C/CN(C)C)s1)C(=O)N1CCC[C@H](N1)C(=O)OCC(C)(C)C2 (atropisomer, axis not shown) [Example A253] | 1000 to 10000 nM | 10 to 100 nM | 100 to 1000 nM |  | 1000 to 10000 nM | 100 to 1000 nM | < 5000 nM | 100 to 1000 nM | 100 to 1000 nM | 100 to 1000 nM | < 10 nM | 
10 | C=CC(=O)Nc1cnc(C(=O)N(C)[C@H](C(=O)N[C@H]2Cc3cc(O)cc(c3)-c3ccc4c(c3)c(c(-c3cccnc3[C@H](C)OC)n4CC)CC(C)(C)COC(=O)[C@@H]3CCCN(N3)C2=O)C(C)C)s1 (atropisomer, axis not shown) [Example A254] | 1000 to 10000 nM | 100 to 1000 nM | 100 to 1000 nM |  | 1000 to 10000 nM | 1000 to 10000 nM | < 5000 nM | 1000 to 10000 nM | 100 to 1000 nM | 100 to 1000 nM | 10 to 100 nM | 
11 | C=CC(=O)Nc1cnc(C(=O)N(C)[C@H](C(=O)N[C@H]2Cc3cc(O)cc(c3)-c3ccc4c(c3)c(c(-c3cccnc3[C@H](C)OC)n4CC)CC(C)(C)COC(=O)[C@@H]3CCCN(N3)C2=O)C(C)C)n1C (atropisomer, axis not shown) [Example A255] | 100 to 1000 nM | < 10 nM | < 10 nM |  | 10 to 100 nM | 100 to 1000 nM |  | 100 to 1000 nM | 100 to 1000 nM | < 10 nM | < 10 nM | < 5000 nM
12 | C=CC(=O)N1CC(C(=O)N(C)[C@H](C(=O)N[C@H]2Cc3cc(O)cc(c3)-c3ccc4c(c3)c(c(-c3cccnc3[C@H](C)OC)n4CC)CC(C)(C)COC(=O)[C@@H]3CCCN(N3)C2=O)C(C)C)C1 (atropisomer, axis not shown) [Example A256] | 100 to 1000 nM | < 10 nM | < 10 nM |  | 10 to 100 nM | 100 to 1000 nM | < 5000 nM | 100 to 1000 nM | 10 to 100 nM | 10 to 100 nM | 10 to 100 nM | 
